This note sets out measurements from paper PMC5588548, “Suramin Inhibits Osteoarthritic Cartilage Degradation by Increasing Extracellular Levels of Chondroprotective Tissue Inhibitor of Metalloproteinases 3” (Molecular Pharmacology, 2017).

For orientation: EC50 means the concentration that produces a half-maximal response. For orientation: Kd means the free concentration of one partner at which half of the binding sites on the other are occupied at equilibrium, for simple one-to-one binding.

In assay [1] the test system is primary chondrocytes isolated from normal porcine cartilage. Description: Accumulation of endogenous TIMP-3 in medium of porcine chondrocytes. The conditions noted are these: suramin 0–250 µg/ml, 48 hours. In kind it is cell-based. Here is the method:
(§1) Cells (HTB94 chondrosarcoma cells, primary porcine chondrocytes, or human osteoarthritic chondrocytes) were plated overnight (6 × 10^5 cells per well of a 12-well plate) in DMEM containing 10% FCS and washed three times in serum-free DMEM. […] Media were harvested, precipitated with trichloroacetic acid, and analyzed by immunoblotting using a rabbit anti–TIMP-3 polyclonal antibody (AB6000; Millipore, Hertfordshire, UK) and an alkaline phosphatase–conjugated anti-rabbit secondary antibody (Promega). TIMP-3 in the medium (mean ± S.D., n = 3) was calculated relative to the pixel volume of untreated cells (defined as 1).

The target of another assay is T1, human TIMP-3 (Homo sapiens, UniProt P35625).
T1 construct: made in house; host or cells: human embryonic kidney 293 cells
T1 sequence (P35625 24-211): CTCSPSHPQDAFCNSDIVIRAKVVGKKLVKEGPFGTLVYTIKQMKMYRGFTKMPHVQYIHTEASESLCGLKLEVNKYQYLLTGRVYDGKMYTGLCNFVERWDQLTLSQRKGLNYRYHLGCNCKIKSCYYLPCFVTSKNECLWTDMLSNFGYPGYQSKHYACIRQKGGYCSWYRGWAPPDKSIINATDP
In words: Solid-phase binding of TIMP-3 to immobilized suramin or analogs (ELISA). The conditions noted are these: TIMP-3 0.4–50 nM. Here is the method: Glycosaminoglycan-binding ELISA plates (BD Life Sciences, Swindon, UK) were coated with suramin or its analogs (10 µg/ml in Tris-buffered saline, 18 hours, 25°C) ([Mahoney et al., 2004]) and wells were blocked with 0.2% gelatin in PBS (1 hour, 37°C). Wells were washed in PBS containing 0.1% Tween 20 after this and every subsequent step. Purified FLAG-tagged human TIMP-3 (0.4–50 nM) in blocking solution was applied to wells (3 hours, 37°C), and binding was detected with anti-FLAG M2 primary antibody and anti-mouse horseradish peroxidase–conjugated secondary antibody. 3,3′,5,5′-Tetramethylbenzidine (Becton Dickinson, Swindon, UK) substrate was added, the reaction was stopped when appropriate by adding 2 N H2SO4, and absorbance at 450 nm was measured using a FLUOstar Omega microplate reader (BMG Labtech, Aylesbury, Buckinghamshire, UK). Data (mean ± S.E., n = 3 technical repeats) were analyzed using Prism 7.0b software (GraphPad Software, La Jolla, CA) and EC50 values determined using a one-site specific binding model. Flat planar dimensions of suramin analogs were estimated using ICM-Pro software (Molsoft LLC, San Diego, CA).
Background: ELISA stands for enzyme-linked immunosorbent assay.

Assay [2] concerns HTB94 chondrosarcoma cells. Description: Accumulation of endogenous TIMP-3 in medium of HTB94 cells. To be noted: suramin 50–200 µg/ml, 30 hours. The format is cell-based. How it is done:
Cells (HTB94 chondrosarcoma cells, primary porcine chondrocytes, or human osteoarthritic chondrocytes) were plated overnight (6 × 10^5 cells per well of a 12-well plate) in DMEM containing 10% FCS and washed three times in serum-free DMEM.
Media were harvested, precipitated with trichloroacetic acid, and analyzed by immunoblotting using a rabbit anti–TIMP-3 polyclonal antibody (AB6000; Millipore, Hertfordshire, UK) and an alkaline phosphatase–conjugated anti-rabbit secondary antibody (Promega). […]

The subject of assay [3] is primary chondrocytes isolated from human OA cartilage. In words: Accumulation of endogenous TIMP-3 in medium of human OA chondrocytes. In kind it is cell-based. To be noted: suramin 0–250 µg/ml, 48 hours. Here is the method:
as §1

The target of another assay is T2, TIMP-3 binding to LRP1 (Homo sapiens, UniProt P35625).
T2 construct: purchased BioMac, Leipzig, Germany
T2 sequence (P35625 24-211): T1 sequence (P35625 24-211)
Description: TIMP-3 binding to immobilized LRP1 (ELISA). To be noted: TIMP-3 preincubated with suramin 200 µg/ml, 1 hour, 37°C. How it is done: LRP1 (5 nM; BioMac, Leipzig, Germany) was coated (overnight, 4°C) onto medium-binding ELISA plates (Greiner Bio-One, Stonehouse, UK) in 20 mM HEPES, 150 mM NaCl, 5 mM CaCl2, and 0.05% Tween 20, pH 7.4. Wells were blocked with 10% bovine serum albumin (BSA) in Tris HCl, NaCl, and CaCl2 (TNC) buffer (50 mM Tris HCl, pH 7.5, 150 mM NaCl, 10 mM CaCl2, and 0.05% Brij 35). Wells were washed in TNC buffer containing 0.1% Tween 20 after this and every subsequent step. FLAG-tagged human TIMP-3 (0.4–50 nM), either alone or preincubated with suramin (200 μg/ml, 1 hour, 37°C), was applied to wells in TNC buffer containing 5% BSA (3 hours, 25°C). Binding was detected with anti-FLAG M2 primary antibody and anti-mouse horseradish peroxidase–conjugated secondary antibody in the same buffer. 3,3′,5,5′-Tetramethylbenzidine (Becton Dickinson) substrate was added, the reaction was stopped when appropriate by adding 2 N H2SO4, and absorbance at 450 nm was measured using a FLUOstar Omega microplate reader. Data (mean ± S.D., n = 3) were analyzed using Prism 7.0b software.

The next assay concerns TIMP-2 mRNA. In words: TIMP-2 mRNA analysis in HTB94 cells (quantitative PCR). The format is cell-based. To be noted: suramin 0–250 µg/ml, 18 hours. Here is the method: (§2) HTB94 chondrosarcoma cells or primary human chondrocytes (1 × 10^6 cells) were treated in triplicate with 0–250 µg/ml suramin in serum-free DMEM for 18–48 hours. Total RNA was isolated from cells using an RNeasy mini kit (Qiagen, Crawley, UK) and cDNA was synthesized (reverse transcriptase kit; Applied Biosystems, Foster City, CA). Levels of TIMP-1, TIMP-2, TIMP-3, LRP1, and RPLP0 internal reference mRNA were quantified by real-time polymerase […] chain reaction on a Corbett Rotor-Gene 6000 (Corbett Life Science, Mortlake, NSW, Australia) using TaqMan Fast Universal PCR Master Mix (Applied Biosystems) and TaqMan probes (Applied Biosystems) Hs01092512_g1 for TIMP-1, Hs00234278_m1 for TIMP-2, Hs00165949_m1 for TIMP-3, Hs00233856_m1 for LRP1, and Hs99999902_m1 for RPLP0. The ΔΔ threshold cycle values (mean ± S.D., n = 3 technical replicates) are shown relative to control untreated HTB94 cells (defined as 1).

Another assay deals with TIMP-3 mRNA. Description: TIMP-3 mRNA analysis in HTB94 cells (quantitative PCR). The format is cell-based. The conditions noted are these: suramin 0–250 µg/ml, 18 hours. How it is done: as §2

As for `Cc1ccc(C(=O)Nc2ccc(S(=O)(=O)O)c3cc(S(=O)(=O)O)cc(S(=O)(=O)O)c23)cc1NC(=O)c1cccc(NC(=O)Nc2cccc(C(=O)Nc3cc(C(=O)Nc4ccc(S(=O)(=O)O)c5cc(S(=O)(=O)O)cc(S(=O)(=O)O)c45)ccc3C)c2)c1` [suramin], the “endocytosis of endogenously expressed TIMP-3” value in assay [1] and in assay [3] was “inhibited endocytosis” in each case. Moreover, at human TIMP-3 (plates coated with 10 µg/ml compound, one-site specific binding model, mean ± S.E., n = 3), the EC50 was determined as 1.9 ± 0.21 nM. Besides, the Kd on human TIMP-3 (solid-phase binding assay, plates coated 10 µg/ml, read-out: KD value for TIMP-3 binding to immobilized compound) came out at 1.9 ± 0.2 nM. For the same molecule, the “endogenous TIMP-3 in the medium” value in assay [2] is on record as “accumulated”. For the same molecule, on TIMP-3 binding to LRP1, the “TIMP-3 binding to immobilized LRP1” value was “abolished”. In addition, the “TIMP-2 mRNA levels” value in the assay with TIMP-2 mRNA is on record as “no effect”. Further, the “TIMP-3 mRNA levels” value in the assay on TIMP-3 mRNA is “not associated with any significant change”.
